In patent publication US20130344026A1, “Dimeric Smac Mimetics” (priority 2009, published 2013) one finds IC50 data, which are given here for 23 compounds.

Like-named read-outs stand apart in the source and are kept apart here. A value given as a limit tells only on which side of the number the result lay.

The test system of this experiment is PANC-1 cells. As to the kind of experiment: cell viability assay in PANC-1 cells (compound alone, + 100 ng/ml TNFa, + 300 ng/ml TRAIL). It counts as cell-based.
[1] abbreviates: Homo sapiens, PANC-1, compound alone, Tables 6-10, read-out: IC50 (μM) in cell viability assay in PANC-1 cells: Compound alone.
[2] abbreviates: with 100 ng/ml TNFa, Tables 6-10, read-out: IC50 (μM) in cell viability assay in PANC-1 cells: Compound + 100 ng/ml TNFa.
Setting [3] is: with 300 ng/ml TRAIL, Tables 6-10, read-out: IC50 (μM) in cell viability assay in PANC-1 cells: Compound + 300 ng/ml TRAIL.
The mark [4] stands for this setting: Homo sapiens, PANC-1, compound alone, Tables 15-18, read-out: IC50 (uM) in cell viability assay in PANC-1 cells: Cmpnd alone.
The mark [5] stands for this setting: with 100 ng/ml TNFa, Tables 15-18, read-out: IC50 (uM) in cell viability assay in PANC-1 cells: Cmpnd + 100 ng/ml TNFa.
Setting [6] is: with 300 ng/ml TRAIL, Tables 15-18, read-out: IC50 (uM) in cell viability assay in PANC-1 cells: Cmpnd + 300 ng/ml TRAIL.
Where [7] appears, read: PANC-1 cells, + 100 ng/ml TNFa, read-out: IC50 (uM) in cell viability assay in PANC-1 cells, Cmpnd + 100 ng/ml TNFa.
[8] abbreviates: PANC-1 cells, + 300 ng/ml TRAIL, read-out: IC50 (uM) in cell viability assay in PANC-1 cells, Cmpnd + 300 ng/ml TRAIL.
Setting [9] is: Homo sapiens, PANC-1 cells, compound alone, read-out: IC50 (uM) in cell viability assay in PANC-1 cells, Cmpnd alone.

Regarding `CN[C@@H](C)C(=O)NC(C(=O)N[C@@H](CCNC(=O)CCc1cn([C@H]2C[C@@H](C(=O)N[C@@H]3CCCc4ccccc43)N(C(=O)[C@@H](NC(=O)[C@H](C)NC)C(C)(C)C)C2)nn1)C(=O)N[C@H](C)C(C)C)C(C)(C)C` (stereo partly drawn) [Compound 198], the IC50 is, setting by setting: under setting [1], greater than 1 µM; under setting [2], 0.109 µM; under setting [3], 0.069 µM.
The like results for `CN[C@@H](C)C(=O)N[C@@H](CCCCNC(=O)c1cccc(C(=O)N[C@H]2C[C@@H](C(=O)N[C@@H]3CCCc4ccccc43)N(C(=O)[C@@H](NC(=O)[C@H](C)NC)C(C)(C)C)C2)c1)C(=O)N1CCC[C@H]1C(=O)NC(c1ccccc1)c1ccccc1` [Compound 184] were, in that order, greater than 1 µM, 0.027 µM and 0.076 µM.
The matching figures for `CN[C@@H](C)C(=O)N[C@@H](CCC(=O)Nc1ccc2c(c1)Cc1cc(NC(=O)CC[C@H](NC(=O)[C@H](C)NC)C(=O)N3CCC[C@H]3C(=O)N[C@@H]3CCCc4ccccc43)ccc1-2)C(=O)N1CCC[C@H]1C(=O)N[C@@H]1CCCc2ccccc21` [Compound 117]: greater than 1 µM, 0.02 µM and 0.025 µM.
Turning to `CN[C@@H](C)C(=O)N[C@H](C(=O)N1CCC[C@H]1CN1C(=O)OC[C@@H]1Cc1ccccc1)[C@@H](C)OCCCCCCO[C@H](C)[C@H](NC(=O)[C@H](C)NC)C(=O)N1CCC[C@H]1CN1C(=O)OC[C@@H]1Cc1ccccc1` [Compound 84], the IC50 was greater than 1 µM under setting [1], greater than 1 µM under setting [2] and greater than 1 µM under setting [3].
On to `CN[C@@H](C)C(=O)N[C@@H](CCCCNC(=O)c1cccc(C(=O)NCCCC[C@H](NC(=O)[C@H](C)NC)C(=O)N2C[C@@H](Oc3ccccc3)C[C@H]2C(=O)N[C@@H]2CCCc3ccccc32)c1)C(=O)N1C[C@@H](Oc2ccccc2)C[C@H]1C(=O)N[C@@H]1CCCc2ccccc21` [Compound P2-36], for which the IC50 under setting [4] was greater than 1 µM, the IC50 under setting [5] came out at 0.079 µM and the IC50 under setting [6] was determined as 0.09 µM.
As for `CN[C@@H](C)C(=O)N[C@H](C(=O)N1C[C@@H](NC(=O)c2cccc(C(=O)N[C@H]3C[C@@H](C(=O)NCCc4ccc(O)cc4)N(C(=O)[C@@H](NC(=O)[C@H](C)NC)C(C)(C)C)C3)c2)C[C@H]1C(=O)NCCc1ccc(O)cc1)C(C)(C)C` [Compound 3], the IC50 runs as follows: under setting [1], greater than 1 µM; under setting [2], 0.5 µM; under setting [3], 0.42 µM.
The like results for `CCCC[C@@H](C)NC(=O)c1cc(C(=O)N[C@H]2C[C@@H](C(=O)N[C@@H]3CCCc4ccccc43)N(C(=O)[C@@H](NC(=O)[C@H](C)NC)C(C)(C)C)C2)cc(C(=O)N[C@H]2C[C@@H](C(=O)N[C@@H]3CCCc4ccccc43)N(C(=O)[C@@H](NC(=O)[C@H](C)NC)C(C)(C)C)C2)c1` [Compound 128] were, in that order, greater than 1 µM, 0.01 µM and 0.014 µM.
On to `CN[C@@H](C)C(=O)N[C@H](C(=O)N1C[C@@H](NC(=O)C2CCCC(C(=O)N[C@H]3C[C@@H](C(=O)N[C@H](C)c4ccccc4)N(C(=O)[C@@H](NC(=O)[C@H](C)NC)C(C)(C)C)C3)C2)C[C@H]1C(=O)N[C@H](C)c1ccccc1)C(C)(C)C` (stereo partly drawn) [Compound P3-97], for which the IC50 by setting is: under setting [7], 0.059 µM; under setting [8], 0.065 µM; (PANC-1 cells, compound alone, read-out: IC50 (uM) in cell viability assay in PANC-1 cells, Cmpnd alone) greater than 1 µM.
On to `CN[C@@H](C)C(=O)N[C@H](C(=O)N1CCC[C@H]1CN1C(=O)OC[C@@H]1Cc1ccccc1)[C@@H](C)OCC#CC#CCO[C@H](C)[C@H](NC(=O)[C@H](C)NC)C(=O)N1CCC[C@H]1CN1C(=O)OC[C@@H]1Cc1ccccc1` [Compound 82], for which the IC50 is, setting by setting: under setting [1], greater than 1 µM; under setting [2], 0.536 µM; under setting [3], 0.564 µM.
Consider `CN[C@@H](C)C(=O)N[C@@H](CCCCNC(=O)c1cccc(C(=O)NCCCC[C@H](NC(=O)[C@H](C)NC)C(=O)N2CCC[C@H]2Cn2nnnc2Sc2ccccc2)c1)C(=O)N1CCC[C@H]1Cn1nnnc1Sc1ccccc1` [Compound 207], for which the IC50 reads like this: under setting [1], greater than 1 µM; under setting [2], 0.263 µM; under setting [3], 0.398 µM.
For the compound `CN[C@@H](C)C(=O)N[C@H](C(=O)N[C@@H](CCNC(=O)CC[C@H](NC(=O)[C@@H](NC(=O)[C@H](C)NC)C(C)(C)C)C(=O)N[C@@H]1CCCc2ccccc21)C(=O)N[C@H](C)C(C)C)C(C)C` [Compound 166], the IC50 by setting is: under setting [1], greater than 1 µM; under setting [2], 0.994 µM; under setting [3], greater than 1 µM.
Consider `CN[C@@H](C)C(=O)N[C@H](C(=O)N[C@@H](CCNC(=O)c1cc(C(=O)N[C@H]2C[C@@H](C(=O)N[C@@H]3CCCc4ccccc43)N(C(=O)[C@@H](NC(=O)[C@H](C)NC)C(C)(C)C)C2)cc([N+](=O)[O-])c1)C(=O)N[C@@H]1CCCc2ccccc21)C(C)C` [Compound 182], for which the IC50 is greater than 1 µM under setting [1], 0.043 µM under setting [2] and 0.08 µM under setting [3].
Take `CN[C@@H](C)C(=O)NC(C(=O)N[C@@H](CCNC(=O)CCc1cn([C@H]2C[C@@H](C(=O)N[C@@H]3CCCc4ccccc43)N(C(=O)[C@@H](NC(=O)[C@H](C)NC)C3CCCCC3)C2)nn1)C(=O)N[C@H](C)C(C)C)C(C)C` (stereo partly drawn) [Compound 204]: the IC50 is greater than 1 µM under setting [1], 0.392 µM under setting [2] and 0.564 µM under setting [3].
In the case of `CN[C@@H](C)C(=O)N[C@@H](CCCCCC[C@H](NC(=O)[C@H](C)NC)C(=O)N1CCC[C@H]1CNC(=O)c1ccccn1)C(=O)N1CCC[C@H]1CNC(=O)c1ccccn1` [Compound P2-47], the IC50 by setting is: under setting [4], greater than 1 µM; under setting [5], 0.108 µM; under setting [6], 0.153 µM.
As to `CN[C@@H](C)C(=O)Nc1nc(CC(=O)NCC[C@H](NC(=O)[C@@H](NC(=O)[C@H](C)NC)C(C)(C)C)C(=O)N[C@@H]2CCCc3ccccc32)cs1` [Compound 190], the IC50 is greater than 1 µM under setting [1], greater than 1 µM under setting [2] and greater than 1 µM under setting [3].
For the compound `CN[C@@H](C)C(=O)Nc1nc(CC(=O)NCCc2cn([C@H]3C[C@@H](C(=O)N[C@@H]4CCCc5ccccc54)N(C(=O)[C@@H](NC(=O)[C@H](C)NC)C(C)(C)C)C3)nn2)cs1` [Compound 195], the IC50 under setting [1] is greater than 1 µM, the IC50 under setting [2] was greater than 1 µM and the IC50 under setting [3] was greater than 1 µM.
Consider `CN[C@@H](C)C(=O)N[C@H](C(=O)N1C[C@@H](NC(=O)c2cc(C(=O)NCCN)cc(C(=O)N[C@H]3C[C@@H](C(=O)N[C@@H]4CCCc5ccccc54)N(C(=O)[C@@H](NC(=O)[C@H](C)NC)C(C)(C)C)C3)c2)C[C@H]1C(=O)N[C@@H]1CCCc2ccccc21)C(C)(C)C` [Compound 126], for which the IC50 is greater than 1 µM under setting [1], 0.023 µM under setting [2] and 0.028 µM under setting [3].
Turning to `CN[C@@H](C)C(=O)N[C@@H](CCNC(=O)NCC[C@H](NC(=O)[C@H](C)NC)C(=O)N1CCC[C@H]1C(=O)N[C@@H]1CCCc2ccccc21)C(=O)N1CCC[C@H]1C(=O)N[C@@H]1CCCc2ccccc21` [Compound P2-39], the IC50 by setting is: under setting [4], greater than 1 µM; under setting [5], 0.349 µM; under setting [6], 0.225 µM.
On to `CN[C@@H](C)C(=O)N[C@H](C(=O)N1C[C@@H](NC(=O)C2CCCC(C(=O)N[C@H]3C[C@@H](C(=O)N[C@H](C)c4ccccc4)N(C(=O)[C@@H](NC(=O)[C@H](C)NC)C(C)(C)C)C3)C2)C[C@H]1C(=O)N[C@H](C)c1ccccc1)C(C)(C)C` (stereo partly drawn) [Compound P3-96], for which the IC50 is greater than 1 µM under setting [9], 0.055 µM under setting [7] and 0.006 µM under setting [8].
On to `CN[C@@H](C)C(=O)N[C@@H](CCC(=O)Nc1cccc(C#Cc2cccc(NC(=O)CC[C@H](NC(=O)[C@H](C)NC)C(=O)N3CCC[C@H]3C(=O)N[C@@H]3CCCc4ccccc43)c2)c1)C(=O)N1CCC[C@H]1C(=O)N[C@@H]1CCCc2ccccc21` [Compound P2-49], for which the IC50 by setting is: under setting [4], greater than 1 µM; under setting [5], 0.033 µM; under setting [6], 0.033 µM.
For `CN[C@@H](C)C(=O)N[C@H](C(=O)N1C[C@@H](NC(=O)c2cccc(C(=O)N[C@H]3C[C@@H](C(=O)N[C@H](C)c4ccccc4)N(C(=O)[C@@H](NC(=O)[C@H](CO)NC)C(C)(C)C)C3)c2)C[C@H]1C(=O)N[C@@H]1CCCc2ccccc21)C(C)(C)C` [Compound 173], the IC50 was greater than 1 µM under setting [1], 0.01 µM under setting [2] and 0.019 µM under setting [3].
With `CN[C@@H](C)C(=O)N[C@H](C(=O)N1C[C@@H](NC(=O)c2cccc(C(=O)N[C@H]3C[C@@H](C(=O)N[C@@H]4CCCc5ccc(Br)cc54)N(C(=O)[C@@H](NC(=O)[C@H](C)NC)C(C)(C)C)C3)c2)C[C@H]1C(=O)N[C@@H]1CCCc2ccc(Br)cc21)C(C)(C)C` (single isomer, unassigned) [Compound 62], the IC50 by setting is: under setting [1], greater than 1 µM; under setting [2], 0.107 µM; under setting [3], 0.099 µM.
Consider `CN[C@@H](CO)C(=O)N[C@H](C(=O)N1C[C@@H](NC(=O)c2cccc(C(=O)N[C@H]3C[C@@H](C(=O)N[C@H](C)c4ccccc4)N(C(=O)[C@@H](NC(=O)[C@H](CO)NC)C(C)(C)C)C3)c2)C[C@H]1C(=O)N[C@H](C)c1ccccc1)C(C)(C)C` [Compound P3-90], for which the IC50 under setting [9] was greater than 1 µM, the IC50 under setting [7] was 0.007 µM and the IC50 under setting [8] came out at 0.021 µM.
